From patent EP0504184B1, “ACTIVE AGENT AGAINST RETROVIRUS GROUP VIRUSES, COMPOSITIONS CONTAINING SAME AND THEIR USE” (PREVISAN S.A., priority 1989, dated 1991)

Key:
[1] = system: provirus VIH-1; assay: Integration of the viral genome into chromosomal DNA of Supt-1 cells (PCR of gag, LTR, env; hybridisation with P32 probes); assay type: cell-based; conditions: for provirus VIH-1 dans les cellules Supt-1: hybridisation with P32 probes for gag, LTR, env
From the text: Intégration du génome viral dans l'ADN chromosomial des cellules Supt-1.
Par amplification génétique grâce à une polymérase thermostable, on met en évidence la présence des gènes "gag", "LTR" et "env" du provirus VIH-1. Cette technique est appelée P.C.R. (Polymerase Chain Reaction) (CHIN-YIH OU et cons., Sciences, 239, 295-297, 1988).
Cette technique est appliquée pour la détection du provirus VIH-1 dans le génome des cellules Supt-1 inoculées par du virus VIH-1 incubé avec de la chloroazodine, comme décrit dans l'exemple 4.

[2] = system: lymphocytes normaux; assay type: cell-based, humains
From the text: (§1) Des lymphocytes humains provenant du sang périphérique de donneurs séro-négatifs (PBL) sont infectés par du VIH-1 provenant du surnageant de cellules Molt-3, c'est-à-dire de cellules continuellement productrices de ces virus.
(§2) Quatre populations cellulaires sont étudiées quant à leur mortalité : • 1 des lymphocytes normaux en culture (Témoin A). • 2 des lymphocytes normaux en présence de chloroazodine 1/3000. • 3 des lymphocytes infectés non traités (Témoin B). • 4 des lymphocytes infectés, en présence de chloroazodine 1/3000. Tableau 4

[3] = system: lymphocytes infectés; assay: Mortality of HIV-1 infected human peripheral blood lymphocytes with chloroazodine; assay type: cell-based, humains; conditions: for Nombre de cellules mortes / Nombre de cellules vivantes: HIV-1 infected lymphocytes + chloroazodine 1/3000
From the text: as §1
Au jour 8 de l'infection, celle-ci est contrôlée par l'expression de l'antigène p 24 (Test Elisa, voir Exemple 4).
as §2

NC(N=NC(N)=NCl)=NCl [chloroazodine, N, N'-dichloroazodicarbonamidine]
oligonucléotides amplifiés et visibles aux UV ([1]; PCR, ethidium bromide): apparaissent uniquement dans les tubes à essais qui correspondent à une inoculation par du virus VIH-1 non traité à la chloroazodine | provirus VIH-1 dans les cellules Supt-1 ([1]; virions treated at dilution 1/1500): absence totale de provirus VIH-1 | provirus VIH-1 dans les cellules Supt-1 ([1]; virions treated at dilution 1/3000): absence totale de provirus VIH-1 | différences entre les témoins A et B et les lymphocytes sains + chloroazodine [2]: non significatives | Nombre de cellules mortes ([3]; duration 1 min): 31 | Nombre de cellules vivantes ([3]; duration 1 min): 17 | Nombre de cellules mortes ([3]; duration 10 min): 34 | Nombre de cellules vivantes ([3]; duration 10 min): 14 | Nombre de cellules mortes ([3]; duration 30 min): 39 | Nombre de cellules vivantes ([3]; duration 30 min): 21 | Nombre de cellules mortes ([3]; duration 180 min): 20 | Nombre de cellules vivantes ([3]; duration 180 min): 8 | toxicité sélective pour des cellules infectées ([3]; conclusion from comparison of infected and normal lymphocytes, chloroazodine 1/3000): toxicité sélective de la chloroazodine pour des cellules infectées
